Laboratory results published in patent US12521395B2, “Gem-disubstituted heterocyclic compounds and their use as IDH inhibitors” (NERVIANO MEDICAL SCIENCES S.R.L., priority 2019, dated 2026).
Like-named read-outs stand apart in the source and are kept apart here.

Assays:
IDH1^R132C = IDH1^R132C (Homo sapiens, UniProt O75874, R132C); assay: NADPH depletion assay (diaphorase/resazurin), IDH1 R132C; assay type: biochemical
Protocol: IDH mutated enzyme activity converting alpha-ketoglutarate to 2-hydroxyglutaric acid is measured using a NADPH depletion assay. In the assay the remaining cofactor is measured at the end of the reaction with the addition of a catalytic excess of diaphorase and resazurin, to generate a fluorescent signal in proportion to the amount of NADPH remaining. IDH1 WT enzyme as well as mutated isoforms IDH1^R132H, IDH1^R132C, and IDH2^R172K enzymes are commercially available proteins (see e.g. Sino Biological, Abcam, Active Motif or Creative BioMart).
IDH1^R132H homodimer enzyme are diluted to 8 nM, in 10 μL of Assay Buffer (150 mM NaCl, 50 mM Tris-HCl pH 7.6, 10 mM MgCl2, 0.001% Triton X-100, 4 mM β-mercaptoethanol); 0.2 μL of test compound, previously serially diluted 1 to 3, >10 experimental points from 1 mM in DMSO, is added and the mixture is incubated for 15 minutes at room temperature. The reaction is started with the addition of 10 μL of Substrate Mix (12 μM NADPH, 3.4 mM alpha-ketoglutarate in Assay Buffer) and the mixture is incubated for 60 minutes at room temperature. The reaction is terminated with the addition of 5 μl of Detection Buffer (100 μg/mL diaphorase, 30 μM resazurin, in IX Assay Buffer), and is incubated for 15 minutes before reading on a ViewLux as platereader at Ex544/Em590.
Compounds are assayed for their activity against IDH1^R132C following the same assay as above with the following modifications: IDH1^R132C and alpha-ketoglutarate final concentrations in the Assay Buffer is 2 nM and 0.14 mM, respectively.

[1] = tested on: cell lines HT-1080 (IDH1^R132C); assay: Cellular assay: inhibition of 2HG production, LC-MS/MS; assay type: cell-based; settings: Homo sapiens, 72 hr incubation, 2-HG in cell culture media, read-out: HT1080 2-HG IC50
Protocol: Cell lines HT-1080 (commercially available) are maintained in E-MEM 10% FCS and incubated at 37° C. in a humidified 5% CO2 atmosphere.
Cells are seeded into 96 well black flat bottom plates at a density of 500 cells/well in 100 μL complete medium. After 24 hr the medium is replaced with 200 μL of fresh medium and compounds (dissolved into DMSO) are administrated to the cells using D300E Digital Dispenser (Tecan).
After 72 hr of incubation 100 μL from each well are collected and used for 2HG (R(−)-2-hydroxyglutarate) quantification. Levels of 2-HG in cell culture media are determined by LC-MS/MS. Cell supernatants (100 μL/well) are treated with 1 M aqueous trichloroacetic acid containing 130 μM of the internal standard 2-HG-d3 (20 μL/well) in a 96-well plate. The plates are sealed, mildly vortexed for 60 minutes, centrifuged at 4,000 RPM for 15 minutes, placed in a refrigerated autosampler taking care not to shake them, and aliquots of the upper part of the samples are directly injected in the chromatographic system. Calibration standards are obtained by ten folds dilution of aqueous 2-HG stock solutions with blank cell culture medium and denatured exactly in the same way as described above for samples. Samples and standards are assayed for 2-HG by reversed phase chromatography on a C18 column eluted with aqueous 0.15% formic acid and briefly washed with 90% methanol at the end of the run. 2-HG is determined by negative ion electrospray ionization with the internal standard method on a triple quadrupole mass spectrometer monitoring the MRM transitions 147>129 (2-HG) and 150>132 (2-HG-d3).
2-HG inhibition was calculated by comparing treated versus control data using Assay Explore (Symyx) software, with IC50 determined using a sigmoidal fitting algorithm.

[2] = IDH1^R132C 2 nM, alpha-ketoglutarate 0.14 mM, read-out: IDH1^R132C IC50

IDH1^R132C, sequence (O75874 whole entry R132C, canonical isoform): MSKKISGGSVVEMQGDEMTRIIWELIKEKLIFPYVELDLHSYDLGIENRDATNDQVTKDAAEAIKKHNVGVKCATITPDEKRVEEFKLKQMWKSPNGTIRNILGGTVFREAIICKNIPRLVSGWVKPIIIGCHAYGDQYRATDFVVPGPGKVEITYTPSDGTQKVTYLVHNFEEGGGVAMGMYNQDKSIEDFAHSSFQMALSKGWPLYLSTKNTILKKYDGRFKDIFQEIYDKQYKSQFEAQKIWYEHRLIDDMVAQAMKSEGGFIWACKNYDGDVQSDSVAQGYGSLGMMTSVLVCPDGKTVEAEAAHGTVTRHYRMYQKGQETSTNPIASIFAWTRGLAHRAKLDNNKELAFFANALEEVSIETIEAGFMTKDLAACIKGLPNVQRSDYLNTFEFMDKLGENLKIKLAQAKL

C=CC(=O)N1CCN(C(C)(C)c2ccc([C@H](C)Nc3ncc4ccc(=O)n(C(C)C)c4n3)cc2)CC1 [cpd 2, 2-{[(1S)-1-{4-[2-(4-acryloylpiperazin-1-yl)propan-2-yl]phenyl}ethyl]amino}-8-(propan-2-yl)pyrido[2,3-d]pyrimidin-7(8H)-one]
IC50 (IDH1^R132C; [2]): 12 nM | IC50 [1]: 4.9 nM

C=CC(=O)N1CCN(C2(c3ccc([C@H](C)Nc4ncc5ccc(=O)n(C(C)C)c5n4)cc3)COC2)CC1 [cpd 3, 2-{[(1S)-1-{4-[3-(4-acryloylpiperazin-1-yl)oxetan-3-yl]phenyl}ethyl]amino}-8-(propan-2-yl)pyrido[2,3-d]pyrimidin-7(8H)-one]
IC50 (IDH1^R132C; [2]): 27.2 nM | IC50 [1]: 13 nM

C=CC(=O)N1CCN(C2(c3ccc([C@H](C)Nc4ncc5ccc(=O)n(C(C)C)c5n4)cc3)CCN(C(C)=O)CC2)CC1 [cpd 6, 2-{[(1S)-1-{4-[1-acetyl-4-(4-acryloylpiperazin-1-yl)piperidin-4-yl]phenyl}ethyl]amino}-8-(propan-2-yl)pyrido[2,3-d]pyrimidin-7(8H)-one]
IC50 (IDH1^R132C; [2]): 5.9 nM | IC50 [1]: 5.2 nM

C=C(CN1CCN(C2(c3ccc([C@H](C)Nc4ncc5ccc(=O)n(C(C)C)c5n4)cc3)CCOCC2)CC1)C(=O)O [cpd 7, 2-{[4-(4-{4-[(1S)-1-{[7-oxo-8-(propan-2-yl)-7,8-dihydropyrido[2,3-d]pyrimidin-2-yl]amino}ethyl]phenyl}tetrahydro-2H-pyran-4-yl)piperazin-1-yl]methyl}prop-2-enoic acid]
IC50 (IDH1^R132C; [2]): 40.2 nM | IC50 [1]: 562 nM

CCC(=O)N1CCN(C2(c3ccc([C@H](C)Nc4ncc5ccc(=O)n(C(C)C)c5n4)cc3)CCOCC2)CC1 [cpd 8, 2-{[(1S)-1-{4-[4-(4-propanoylpiperazin-1-yl)tetrahydro-2H-pyran-4-yl]phenyl}ethyl]amino}-8-(propan-2-yl)pyrido[2,3-d]pyrimidin-7(8H)-one]
IC50 (IDH1^R132C; [2]): 1320 nM | IC50 [1]: 1930 nM

C=CC(=O)N1CCN(C2(c3ccc([C@@H](C)Nc4ncc5ccc(=O)n(C(C)C)c5n4)cc3)CCOCC2)CC1 [cpd 9, 2-{[(1R)-1-{4-[4-(4-acryloylpiperazin-1-yl)tetrahydro-2H-pyran-4-yl]phenyl}ethyl]amino}-8-(propan-2-yl)pyrido[2,3-d]pyrimidin-7(8H)-one]
IC50 (IDH1^R132C; [2]): 125 nM | IC50 [1]: 67 nM

C=CC(=O)N1CCN(C2(c3ccc([C@H](C)Nc4ncc5ccc(=O)n(C(C)C)c5n4)cn3)CCOCC2)CC1 [cpd 12, 2-{[(1S)-1-{6-[4-(4-acryloylpiperazin-1-yl)tetrahydro-2H-pyran-4-yl]pyridin-3-yl}ethyl]amino}-8-(propan-2-yl)pyrido[2,3-d]pyrimidin-7(8H)-one]
IC50 (IDH1^R132C; [2]): 117 nM | IC50 [1]: 34 nM

C=CC(=O)N1CCN(C2(c3ccc([C@H](C)Nc4ncc5ccc(=O)n(CC)c5n4)cc3)CCOCC2)CC1 [cpd 14, 2-{[(1S)-1-{4-[4-(4-acryloylpiperazin-1-yl)tetrahydro-2H-pyran-4-yl]phenyl}ethyl]amino}-8-ethylpyrido[2,3-d]pyrimidin-7(8H)-one]
IC50 (IDH1^R132C; [2]): 4.4 nM | IC50 [1]: 4.8 nM

C=CC(=O)N1CCN(C2(c3ccc([C@H](C)Nc4ncc5c(C)cc(=O)n(C6CCCC6)c5n4)cc3)CCOCC2)CC1 [cpd 15, 2-{[(1S)-1-{4-[4-(4-acryloylpiperazin-1-yl)tetrahydro-2H-pyran-4-yl]phenyl}ethyl]amino}-8-cyclopentyl-5-methylpyrido[2,3-d]pyrimidin-7(8H)-one]
IC50 (IDH1^R132C; [2]): 24.7 nM | IC50 [1]: 9 nM

C=CC(=O)N1CCN(C2(c3ccc([C@H](C)Nc4ncc5ccc(=O)n(C(C)C)c5n4)cc3)CCCC2)CC1 [cpd 16, 2-{[(1S)-1-{4-[1-(4-acryloylpiperazin-1-yl)cyclopentyl]phenyl}ethyl]amino}-8-(propan-2-yl)pyrido[2,3-d]pyrimidin-7(8H)-one]
IC50 (IDH1^R132C; [2]): 1.3 nM | IC50 [1]: 0.3 nM

C=CC(=O)N1CCN(C2(c3ccc([C@H](C)Nc4ncc5ccc(=O)n(C(C)C)c5n4)cc3)CCOC2)CC1 (stereo partly drawn) [cpd 17, 2-{[(1S)-1-{4-[3-(4-acryloylpiperazin-1-yl)tetrahydrofuran-3-yl]phenyl}ethyl]amino}-8-(propan-2-yl)pyrido[2,3-d]pyrimidin-7(8H)-one]
IC50 (IDH1^R132C; [2]): 25.7 nM | IC50 [1]: 4.9 nM

C=CC(=O)N1CCN(C2(c3ccc([C@H](C)Nc4nc(N)c5ccc(=O)n(C(C)C)c5n4)cc3)CCOCC2)CC1 [cpd 19, 2-{[(1S)-1-{4-[4-(4-acryloylpiperazin-1-yl)tetrahydro-2H-pyran-4-yl]phenyl}ethyl]amino}-4-amino-8-(propan-2-yl) pyrido[2,3-d]pyrimidin-7(8H)-one]
IC50 (IDH1^R132C; [2]): 3.1 nM | IC50 [1]: 3 nM

C=CC(=O)N1CCN(C2(c3ccc([C@H](C)Nc4ncc5ccc(=O)n(C(C)C)c5n4)cc3)CCCCC2)CC1 [cpd 20, 2-{[(1S)-1-{4-[1-(4-acryloylpiperazin-1-yl)cyclohexyl]phenyl}ethyl]amino}-8-(propan-2-yl)pyrido[2,3-d]pyrimidin-7(8H)-one]
IC50 (IDH1^R132C): 1 nM | IC50 [1]: 1 nM

CC(C)n1c(=O)ccc2cnc(N[C@@H](C)c3ccc(C4(N5CCN(C(=O)CCl)CC5)CCOCC4)cc3)nc21 [cpd 22, 2-{[(1S)-1-(4-{4-[4-(chloroacetyl)piperazin-1-yl]tetrahydro-2H-pyran-4-yl}phenyl)ethyl]amino}-8-(propan-2-yl) pyrido[2,3-d]pyrimidin-7(8H)-one]
IC50 (IDH1^R132C; [2]): 8 nM | IC50 [1]: 121 nM

CC(C)n1c(=O)ccc2cnc(N[C@@H](C)c3ccc(C4(N5CCN(C(=O)CCCl)CC5)CCOCC4)cc3)nc21 [cpd 23, 2-{[(1S)-1-(4-{4-[4-(3-chloropropanoyl)piperazin-1-yl]tetrahydro-2H-pyran-4-yl}phenyl)ethyl]amino}-8-(propan-2-yl) pyrido[2,3-d]pyrimidin-7(8H)-one]
IC50 (IDH1^R132C; [2]): 1460 nM | IC50 [1]: 122 nM

C=CC(=O)N1CCN(C2(c3ccc([C@H](C)Nc4ncc5c(n4)N(CC)C(=O)OC5)cc3)CCOCC2)CC1 [cpd 24, 7-{[(1S)-1-{4-[4-(4-acryloylpiperazin-1-yl)tetrahydro-2H-pyran-4-yl]phenyl}ethyl]amino}-1-ethyl-1,4-dihydro-2H-pyrimido[4,5-d][1,3]oxazin-2-one]
IC50 (IDH1^R132C; [2]): 3 nM | IC50 [1]: 2.1 nM

C=CC(=O)N1CC(N(C)C2(c3ccc([C@H](C)Nc4ncc5ccc(=O)n(C(C)C)c5n4)cc3)CCOCC2)C1 [cpd 28, 2-{[(1S)-1-(4-{4-[(1-acryloylazetidin-3-yl)(methyl)amino]tetrahydro-2H-pyran-4-yl}phenyl)ethyl]amino}-8-(propan-2-yl) pyrido[2,3-d]pyrimidin-7(8H)-one]
IC50 (IDH1^R132C; [2]): 26 nM | IC50 [1]: 47 nM

C=CC(=O)N1CCN(C2(c3ccc(C4(Nc5ncc6ccc(=O)n(C(C)C)c6n5)CC4)cc3)CCOCC2)CC1 [cpd 30, 2-[(1-{4-[4-(4-acryloylpiperazin-1-yl)tetrahydro-2H-pyran-4-yl]phenyl}cyclopropyl)amino]-8-(propan-2-yl)pyrido[2,3-d]pyrimidin-7(8H)-one]
IC50 (IDH1^R132C; [2]): 48 nM | IC50 [1]: 7.5 nM

C=CC(=O)N1CCN(C2(c3ccc(C(C)(C)Nc4ncc5ccc(=O)n(C(C)C)c5n4)cc3)CCOCC2)CC1 [cpd 40, 2-[(2-{4-[4-(4-acryloylpiperazin-1-yl)tetrahydro-2H-pyran-4-yl]phenyl}propan-2-yl)amino]-8-(propan-2-yl)pyrido[2,3-d]pyrimidin-7(8H)-one]
IC50 (IDH1^R132C; [2]): 18 nM | IC50 [1]: 14.8 nM

CCC(=O)N1CCN(C2(c3ccc([C@H](C)Nc4cc5c(ccc(=O)n5C(C)C)cn4)cc3)CCC(F)(F)CC2)CC1 [cpd 67, 7-{[(1S)-1-{4-[4,4-difluoro-1-(4-propanoylpiperazin-1-yl)cyclohexyl]phenyl}ethyl]amino}-1-(propan-2-yl)-1,6-naphthyridin-2(1H)-one]
IC50 (IDH1^R132C; [2]): 32 nM
